Laboratory results published in ChEMBL document CHEMBL3885881, “DrugMatrix”.

Species on record: Rattus norvegicus
Test: DrugMatrix - Regimen: Daily Repeat
Assay type: toxicity, organism-based, Sprague-Dawley
Set-up: regimen Daily Repeat, gender Male, age 6-8 weeks
Details: in vivo, po, route oral GAVAGE, vehicle .5 % CMC; for BASOPHIL / EOSINOPHIL / ERYTHROCYTE COUNT / HEMATOCRIT / HEMOGLOBIN / LEUKOCYTE COUNT / LYMPHOCYTE / MEAN CORPUSCULAR HEMOGLOBIN / MEAN CORPUSCULAR HEMOGLOBIN CONCENTRATION / MEAN CORPUSCULAR VOLUME / MONOCYTE / NEUTROPHIL / PLATELET COUNT: tissue Blood; for ALANINE AMINOTRANSFERASE / ALBUMIN / ALKALINE PHOSPHATASE / ASPARTATE AMINOTRANSFERASE / BLOOD UREA NITROGEN / CHLORIDE / CHOLESTEROL / CREATINE PHOSPHOKINASE / CREATININE / GLUCOSE / PHOSPHORUS / POTASSIUM / SODIUM / TOTAL BILIRUBIN / TOTAL PROTEIN: tissue Plasma
[1] = 10 mg/kg, 120 h, dose level Low, time 5 day
[2] = 1500 mg/kg, 72 h, dose level High, time 3 day
[3] = 1500 mg/kg, 120 h, dose level High, time 5 day

COc1ccc(Cl)cc1C(=O)NCCc1ccc(S(=O)(=O)NC(=O)NC2CCCCC2)cc1 [GLYBURIDE]
BASOPHIL [1]: 0%
EOSINOPHIL [1]: 0%
ERYTHROCYTE COUNT [1]: 6.4 x10E6/uL
HEMATOCRIT [1]: 37.3%
HEMOGLOBIN [1]: 14.67 G/DL
LEUKOCYTE COUNT [1]: 11.77 x10E3/uL
LYMPHOCYTE [1]: 91.67%
MEAN CORPUSCULAR HEMOGLOBIN [1]: 22.97 pg
MEAN CORPUSCULAR HEMOGLOBIN CONCENTRATION [1]: 39.33 G/DL
MEAN CORPUSCULAR VOLUME [1]: 58.27 fL
MONOCYTE [1]: 0.67%
NEUTROPHIL [1]: 7.67%
PLATELET COUNT [1]: 1048 x10E3/uL
ALANINE AMINOTRANSFERASE [1]: 33 u/L
ALBUMIN [1]: 3.77 G/DL
ALKALINE PHOSPHATASE [1]: 328 u/L
ASPARTATE AMINOTRANSFERASE [1]: 52.33 u/L
BLOOD UREA NITROGEN [1]: 13.67 mg/dL
CHLORIDE [1]: 98.33 MEQ/L
CHOLESTEROL [1]: 53.33 mg/dL
CREATINE PHOSPHOKINASE [1]: 128.67 u/L
CREATININE [1]: 0.57 mg/dL
GLUCOSE [1]: 174 mg/dL
PHOSPHORUS [1]: 10.77 mg/dL
POTASSIUM [1]: 5.8 MEQ/L
SODIUM [1]: 144.33 MEQ/L
TOTAL BILIRUBIN [1]: 0.37 mg/dL
TOTAL PROTEIN [1]: 6.13 G/DL
BASOPHIL [2]: 0%
EOSINOPHIL [2]: 0%
ERYTHROCYTE COUNT [2]: 6.36 x10E6/uL
HEMATOCRIT [2]: 37.7%
HEMOGLOBIN [2]: 14.87 G/DL
LEUKOCYTE COUNT [2]: 13.87 x10E3/uL
LYMPHOCYTE [2]: 88.67%
MEAN CORPUSCULAR HEMOGLOBIN [2]: 23.43 pg
MEAN CORPUSCULAR HEMOGLOBIN CONCENTRATION [2]: 39.47 G/DL
MEAN CORPUSCULAR VOLUME [2]: 59.33 fL
MONOCYTE [2]: 1%
NEUTROPHIL [2]: 10.33%
PLATELET COUNT [2]: 1260.33 x10E3/uL
ALANINE AMINOTRANSFERASE [2]: 32 u/L
ALBUMIN [2]: 3.4 G/DL
ALKALINE PHOSPHATASE [2]: 223.33 u/L
ASPARTATE AMINOTRANSFERASE [2]: 50 u/L
BLOOD UREA NITROGEN [2]: 12 mg/dL
CHLORIDE [2]: 104.33 MEQ/L
CHOLESTEROL [2]: 52.67 mg/dL
CREATINE PHOSPHOKINASE [2]: 133.33 u/L
CREATININE [2]: 0.4 mg/dL
GLUCOSE [2]: 122.67 mg/dL
PHOSPHORUS [2]: 9.57 mg/dL
POTASSIUM [2]: 6.9 MEQ/L
SODIUM [2]: 150.33 MEQ/L
TOTAL BILIRUBIN [2]: 0.23 mg/dL
TOTAL PROTEIN [2]: 5.47 G/DL
BASOPHIL [3]: 0%
EOSINOPHIL [3]: 0%
ERYTHROCYTE COUNT [3]: 6.13 x10E6/uL
HEMATOCRIT [3]: 36.93%
HEMOGLOBIN [3]: 14.7 G/DL
LEUKOCYTE COUNT [3]: 14.7 x10E3/uL
LYMPHOCYTE [3]: 94.33%
MEAN CORPUSCULAR HEMOGLOBIN [3]: 24.03 pg
MEAN CORPUSCULAR HEMOGLOBIN CONCENTRATION [3]: 39.8 G/DL
MEAN CORPUSCULAR VOLUME [3]: 60.3 fL
MONOCYTE [3]: 0.67%
NEUTROPHIL [3]: 5%
PLATELET COUNT [3]: 1089.67 x10E3/uL
ALANINE AMINOTRANSFERASE [3]: 37 u/L
ALBUMIN [3]: 3.67 G/DL
ALKALINE PHOSPHATASE [3]: 297.33 u/L
ASPARTATE AMINOTRANSFERASE [3]: 58.33 u/L
BLOOD UREA NITROGEN [3]: 12.67 mg/dL
CHLORIDE [3]: 99.67 MEQ/L
CHOLESTEROL [3]: 63.33 mg/dL
CREATINE PHOSPHOKINASE [3]: 139.33 u/L
CREATININE [3]: 0.5 mg/dL
GLUCOSE [3]: 135 mg/dL
PHOSPHORUS [3]: 11.5 mg/dL
POTASSIUM [3]: 6.2 MEQ/L
SODIUM [3]: 145.33 MEQ/L
TOTAL BILIRUBIN [3]: 0.33 mg/dL
TOTAL PROTEIN [3]: 5.93 G/DL
